Test results reported in article PMC8187357 (Communications Biology, 2021).
Several values for one entry are separate records, joined by “and”; a condition that tells them apart may be missing. Equal values may be shown once.

Assays:
[1] = molecular target: T1, full-length human PD-L1 overexpressed in CHO-K1 cells (Homo sapiens, UniProt Q9NZQ7); experiment: Cellular NMR (T2) binding, PD-L1 overexpressing CHO-K1 cells; details: for I/I0 / T2: trials 1-3
T1 construct: plasmid (pLVX puro-PD-L1; full-length human PD-L1); expressed in transfected cells; host or cells: CHO-K1 (lentiviral transduction)
T1 sequence (Q9NZQ7 19-290): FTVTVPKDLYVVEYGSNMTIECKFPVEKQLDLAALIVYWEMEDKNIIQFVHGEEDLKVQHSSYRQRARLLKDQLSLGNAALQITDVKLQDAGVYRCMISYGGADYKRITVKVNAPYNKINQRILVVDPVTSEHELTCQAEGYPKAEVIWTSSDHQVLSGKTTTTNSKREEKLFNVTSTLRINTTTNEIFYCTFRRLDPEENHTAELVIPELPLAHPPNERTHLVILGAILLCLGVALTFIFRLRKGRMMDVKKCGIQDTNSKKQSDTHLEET
Method: HEK293T cells were transfected with plasmid (pLVX puro-PD-L1; full-length human PD-L1) using Lenti-X packaging single shots (Takara Bio, Cat. Nos. 631275) as per the recommended kit protocol in order to generate lentiviral particles. The supernatant collected after 48 h containing the lentiviral particles was used for lentiviral transduction of CHO-K1 cells. The expression of PD-L1 on the CHO-K1 cells was determined by flow cytometry. Limiting dilution cloning was performed to isolate single clones of CHO-K1 cells expressing high levels of PD-L1.
PD-L1 transfected CHO-K1 cells were cultured in Ham’s F12 K medium (Cat#21127-022, Gibco) containing penicillin & streptomycin antibiotic solution and 10% FBS (cat#SH30071-03, HyClone) along with 4 µg/mL of puromycin (Cat#A11138-03, Gibco), and were grown at 37 °C, 5% CO2 in a humidified atmosphere in tissue culture treated flask. 80–90% confluent cells were detached with PBS containing 2 mM EDTA, counted and washed twice with phosphate-buffered saline, pH 7.4 and re-suspended in PBS(cat#14190-144 Gibco) at a density of 8 million cells per mL. The cell suspension in PBS was transferred in a 5 mm Norell NMR tube containing 5% D2O and NMR experiments were performed under ligand titration. Cells remained viable under these experimental conditions as assessed by Trypan Blue staining method.
NMR experiments were carried out using Bruker 800 MHz NMR spectrometer fitted with 5 mm TCI cryoprobe. The experiment was performed over 4 × 10^6 cells in 95% 1 X PBS, pH 7.4, after adding 5% (v/v) D2O at constant temperature 298 K employing the pulse sequence shown in Supplementary Fig. 1a. The FID obtained was processed employing TOPSPIN software version 3.5. The interaction studies of CA-170 and overexpressed cells were carried out using a two-point HSQC method by recording the first FID. Briefly, during the transfer of polarization from ^1H to ^13C in the forward INEPT part of the 2D [^13C, ^1H] HSQC experiment, an additional delay of 16 ms is introduced on the proton channel during which the signal decays due to transverse relaxation. A second experiment is recorded with this delay set to […], the experimental parameters used to record these two spectra are given in Supplementary Table 7. A representative NMR spectrum of superimposed first FID of modified 2D [^13C, ^1H] HSQC of CA-170 treatment with PD-L1 overexpressed CHO-K1 cells is shown in Supplementary Fig. 1b.
The signal at any point of time is related to the initial intensity as follows. I=Ioexp(−Δt/T2) Where Δt is the difference between initial and final time points and I and Io are the final and initial intensity respectively. The transverse relaxation time (T2) of the ligand protons is calculated from the signal intensity ratio obtained from the above experiments by using the following equation which can be obtained from the above relation (Supplementary Table 8). T2=Relaxationdelay(τ)/−log(I/I0) where I = Area of the peak with delay (16 ms delay); I0 = Area of the peak without delay (16 μs delay).

[2] = molecular target: T2, VISTA (Homo sapiens, UniProt Q9H7M9); experiment: VISTA functional assay (IFN-γ release, human PBMC); format: cell-based; details: for IFNγ Rescue (%): inhibited by VISTA; for IFNγ Rescue (%) / IFN-γ: replicates; for IFN-γ: human PBMCs + anti-CD3/anti-CD28 + VISTA 2.5 µg/mL
T2 construct: purchased R&D systems 126-B7
T2 sequence (Q9H7M9 with tags, fused parts or gaps limits assumed): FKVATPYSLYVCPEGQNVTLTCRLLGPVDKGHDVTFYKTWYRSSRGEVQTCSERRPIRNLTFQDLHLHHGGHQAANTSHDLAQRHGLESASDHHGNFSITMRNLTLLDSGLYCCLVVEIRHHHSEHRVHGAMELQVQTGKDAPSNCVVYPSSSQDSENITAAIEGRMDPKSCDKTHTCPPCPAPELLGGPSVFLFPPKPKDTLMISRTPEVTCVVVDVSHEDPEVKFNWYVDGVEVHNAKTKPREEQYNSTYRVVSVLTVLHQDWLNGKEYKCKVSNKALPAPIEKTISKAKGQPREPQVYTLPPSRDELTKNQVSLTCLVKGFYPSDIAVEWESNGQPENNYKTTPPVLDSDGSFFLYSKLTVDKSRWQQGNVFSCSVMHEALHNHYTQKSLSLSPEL
Method: The ability of CA-170 to rescue VISTA-mediated inhibition of IFN-γ release from anti-CD3/CD28-stimulated human PBMC was used to monitor the effect of CA-170 on VISTA functionality. Briefly, 96-well cell culture plates were pre-coated with recombinant human VISTA (2.5 µg/mL) and anti- human CD3 (2.5 µg/mL) overnight at 4 °C. Anti-human VISTA and isotype control antibodies were either coated along with the VISTA or incubated for 30 min next day before addition of cells. On the next day, plates were incubated with CA-170 for 30 min at different concentrations. Isolated PBMC (0.1 × 10^6 cells/well) and anti-human CD28 antibodies (1 µg/mL) were added to the wells. The culture was further incubated for 72 h at 37 °C with 5% CO2. After 72 h of incubation the cell culture supernatants were collected after brief centrifugation at 200 g x 5 min at 4 °C and processed for human IFN-γ measurement by ELISA following manufacturer’s protocol (R&D Systems; DY-285). Percent rescue of IFN-γ release was calculated by normalizing individual percent test agent IFN-γ release values to percent anti-CD3 and anti-CD28 antibodies stimulated IFN-γ release. EC50 values were derived by plotting transformed data into non-linear fit in sigmoidal dose–response curve using GraphPad Prism software (Version 7).

[3] = system: GABA; experiment: CEREP 80 panel binding: GABA; details: 10 µM
Method: (§1) CEREP 80 panel assay was carried out by Eurofins Cerep Panlabs facility at France. A series of binding assays was carried out to understand the off-target toxicity of CA-170. CA-170 was tested at 10 μM test concentration in duplicates. Compound binding was calculated as a % inhibition of the binding of a radioactively labeled ligand specific for each target. In each experiment the respective reference compound was tested concurrently with CA-170, and the data were compared with historical values determined at Eurofins. The experiment was accepted in accordance with Eurofins validation standard operating procedure. The results are expressed as a percent of control specific binding; (measured specific binding / control specific binding) × 100 and as a percent inhibition of control specific binding; 100−(measured specific binding / control specific binding) × 100 obtained in the presence of CA-170. The IC50 values (concentration causing a half-maximal inhibition of control specific binding) and Hill coefficients (nH) were determined by non-linear regression analysis of the competition curves generated with mean replicate values using Hill equation curve fitting.

[4] = system: Ion Channels Ca2+, Kv, Skca, Na2+; experiment: CEREP 80 panel binding: Ion Channels; details: 10 µM
Method: as §1

[5] = CA-170 5.0 µM, PD-L1 overexpressed CHO-K1
[6] = CA-170 7.5 μM, PD-L1 Overexpressed CHO-K1
[7] = CA-170 10.0 μM, PD-L1 Overexpressed CHO-K1
[8] = CA-170 15.0 μM, PD-L1 Overexpressed CHO-K1
[9] = CA-170 20.0 μM, PD-L1 Overexpressed CHO-K1
[10] = CA-170 40.0 μM, PD-L1 Overexpressed CHO-K1

Q: How did the I/I0 [1, 5] turn out when C[C@@H](O)[C@H](NC(=O)N[C@@H](CC(N)=O)c1nc([C@@H](N)CO)no1)C(=O)O [CA-170] was run?
A: 0.34 and 0.35

Q: What about the T2 [1, 5] of the same compound?
A: 29.67 mS and 35.08 mS and 33.97 mS

Q: What about the I/I0 [1, 6] of the same compound?
A: 0.43 and 0.4 and 0.49

Q: And the T2 [1, 6]?
A: 43.70 mS and 51.60 mS and 41.00 mS

Q: What about the I/I0 [1, 7] of the same compound?
A: 0.45 and 0.47 and 0.39

Q: And the T2 [1, 7]?
A: 46.10 mS and 48.48 mS and 38.70 mS

Q: What about the I/I0 [1, 8] of the same compound?
A: 0.55 and 0.48 and 0.49

Q: What about the T2 [1, 8] of the same compound?
A: 61.50 mS and 50.00 mS and 52.00 mS

Q: What about the I/I0 [1, 9] of the same compound?
A: 0.57 and 0.53 and 0.51

Q: And the T2 [1, 9]?
A: 66.12 mS and 58.18 mS and 55.36 mS

Q: What about the I/I0 [1, 10] of the same compound?
A: 0.58 and 0.55 and 0.57

Q: And the T2 [1, 10]?
A: 67.51 mS and 61.50 mS and 66.67 mS

Q: And the “binding to PD-L1 overexpressed in the cellular context (in words)” value ([1]; cell-based NMR)?
A: specific interaction of CA-170 to PD-L1

Q: What about the “IFNγ Rescue (%)” value ([2]; 1.95 nM) of the same compound?
A: -2.58% and 0.00% and 0.36%

Q: What about the “IFNγ Rescue (%)” value ([2]; 3.91 nM) of the same compound?
A: -0.86% and 0.32% and 1.09%

Q: And the “IFNγ Rescue (%)” value ([2]; 7.81 nM)?
A: 5.58% and 4.87% and 6.18%

Q: And the “IFNγ Rescue (%)” value ([2]; 15.63 nM)?
A: 21.46% and 16.88% and 19.64%

Q: And the IFN-γ ([2]; 31.25 nM)?
A: 1018 pg/mL and 1268 pg/mL and 1298 pg/mL

Q: And the “IFNγ Rescue (%)” value ([2]; 31.25 nM)?
A: 36.91% and 37.66% and 42.55%

Q: What about the “IFNγ Rescue (%)” value ([2]; 62.50 nM) of the same compound?
A: 48.07% and 36.69% and 46.91%

Q: And the “IFNγ Rescue (%)” value ([2]; 250.00 nM)?
A: 107.73% and 72.73% and 91.64%

Q: What about the IFN-γ ([2]; 500 nM) of the same compound?
A: 2498 pg/mL and 2438 pg/mL and 2828 pg/mL

Q: What about the “IFNγ Rescue (%)” value ([2]; 500.00 nM) of the same compound?
A: 100.43% and 75.65% and 98.18%

Q: And the “rescue of IFNγ release inhibited by recombinant VISTA (in words)” value ([2]; human PBMCs stimulated with anti-CD3 and anti-CD28)?
A: rescued IFNγ release

Q: And the EC50 ([2]; mean ± S.D., n=4, read-out: Human PBMC IFN-γ Rescue EC50 VISTA)?
A: 82.9 nM

Q: And the “% Inhibition of Control Specific Binding” value [3]?
A: 11%

Q: And the “% Inhibition of Control Specific Binding” value [4]?
A: 1%
